Patent US20250223552A1, “METHOD FOR PREPARING T CELLS FOR ADOPTIVE T CELL THERAPY” (ST. JUDE CHILDREN'S RESEARCH HOSPITAL, INC., priority 2022, published 2025)

Assays:
murine B7-H3 CAR-T cells = assay: Phenotype of B7-H3 CAR-T cells generated from T cells transiently treated with Arid1a inhibitor; format: cell-based; conditions: T cells activated 2 days with inhibitor, B7-H3 CAR transduction, additional 6 days culture
Experimental: Murine CAR-T cells were generated as described before (Haydar et al. (2021) Neuro-Oncol. 23:999-1011) with modification. Naïve CD8^+ T cells from 6-8 weeks old CD45.1^+ mice were activated with plate bound anti-CD3ε (1 μg/ml, Bio-X-Cell), anti-CD28 (2 μg/ml, Bio-X-Cell) and 50 U/ml rhIL-2 (Peprotech). On day 2 post-activation, CD8^+ T cells were transduced with retrovirus expressing B7-H3-CAR or control CAR on recombinant human fibronectin sold under the tradename RETRONECTIN® (Takara)-coated non-tissue culture treated plate in complete RPMI medium supplemented with 50 U/ml rhIL-2. At 48 hours after transduction, CAR-T cells were harvested and expanded in the presence of 10 ng/ml rhIL-15 (Peprotech) for another 3 days and then used d for in vivo and in vitro experiments.
(§1) Currently the most widely used adoptive T cell therapy employs the use of CARs. However, the use of CAR-T cells for the treatment of solid tumors remains challenging (Lim & June whether CAR-T cell (2017) Cell 168:724-740). […] The ability of B7-H3 CAR-T cells to control the growth of F420 cells was then assessed in vivo.

[1] = system: B7-H3-expressing GL261 tumor cells; assay: Repeat stimulation assay of B7-H3 CAR-T cells with GL261 tumor cells; format: cell-based, murine; conditions: CAR-T:tumor 3:1, counted every 3 days, FIG. 4
Experimental: (§2) T cells were transduced with B7-H3 CAR or a control CAR containing only the single-chain variable fragment (scFv) and transmembrane domain (B7-H3 STOP CAR) and co-cultured with GL261 tumor cells at the ratio of 3:1. Cells numbers were assessed every 3 days. Data are compiled from at least two independent experiments. Data are shown as mean±s.e.m. ***p<0.001; two-way ANOVA.
(§3) Repeat Stimulation Assay. For repeat stimulation assays, 3×10^5 tumor cells (GL261, F420) were plated in a 24-well plate and allowed to adhere for 4-6 hours at 37° C., CAR-T cells (1×10^6) were then added to the wells containing tumor cells without any exogenous cytokines (tumor: CAR-T cell ratio=1:3). After 3 days of co-culture, CAR-T cells were lifted by gentle pipetting to avoid disrupting adherent tumor cells, and the number of T cells was determined using a hemocytometer. Stimulations and cell counts were repeated every 3 days with the same tumor cells.
as §1

human CD8^+ T cells [2] = assay: Persistence of inhibitor-pretreated human CD8+ T cells in NSG mice at day 30 after adoptive transfer; format: in vivo; conditions: transient treatment during activation; recovered after 30 days; FIG. 9
Experimental: Naïve human CD8^+ T cells were activated with anti-CD3/CD28 in the presence or absence of Arid1a inhibitor for 48 hours followed by expansion in IL-15 containing medium for another 4 days prior to adoptive transfer. Data are representative of two independent experiments. Data are shown as mean±s.e.m. *p<0.05; two-tailed unpaired Student's t-test.
For human CD8^+ T cell experiments, naïve CD8^+ T cells were activated by human CD3/CD28 T cell activator (StemCell) with or without an Arid1a inhibitor (BRD-K98645985; 1 μM; AOBIOUS or MedChemExpress) for two days and cultured in rhIL-15 (10 ng/ml, Peprotech) containing medium. Activated CD8^+ T cells (3×10^6) were then transferred to NOD scid gamma mice sold under the tradename NSG®. After 30 days, splenic cells were analyzed by flow cytometry.
The effect of the Arid1a inhibitor on the differentiation of activated, human CD8^+ T cells was also analyzed. Human naïve CD8^+ T cells from healthy donors were enriched and stimulated with anti-CD3/CD28, following by culturing in IL-15 or IL-2, two cytokines that respectively promote in vitro TMEM-like and TEFF-like cell formation (Buck et al. (2016) Cell 166:63-76; Mitchell et al. (2010) J. Immunol. 184:6719-6730). Arid1a inhibitor was added during different periods of culture. […] After 30 days, T cells were recovered and analyzed.

B16-Ova tumors = assay: B16-Ova tumor growth after adoptive transfer of inhibitor-pretreated OT-I cells; format: in vivo; conditions: OT-I cells transiently treated with inhibitor during activation, transferred into tumor-bearing mice; FIG. 2
Experimental: Naïve OT-I CD8^+ T cells were activated with anti-CD3/CD28 in the presence or absence of Arid1a inhibitor for 48 hours followed by expansion for another 4 days. Data are representative of two independent experiments. Data are as shown mean±s.e.m. **p<0.01, ***p<0.001; two-way ANOVA.
(§4) In Vivo Tumor Transplant Experiment. For B16-Ova and MC38-Ova tumors, 0.5×10^6 tumor cells were injected subcutaneously into naïve mice (7-10 weeks of age). OT-I cells (2×10^6) were transferred i.v. 7 days after tumor injection. Tumors were measured every two days.
(§5) Effective adoptive T cell therapy for cancer is critically dependent upon the use of T cells with long-term memory potential (Lugli et al. (2020) Trends Immunol. 41:17-28; Gattinoni et al. (2012) Nat. Rev. Cancer 12:671-684; Klebanoff et al. (2005) Proc. Natl. Acad. Sci. USA 102:9571-9576; Hurton et al. (2016) Proc. Natl. Acad. Sci. USA 113: E7788-E7797). Therefore, it was determined whether manipulation of CBAF can improve anti-tumor therapy. Accordingly, OT-I cells were transduced with sgRNA for Smarcd2 or control sgRNA, and the transduced cells were transferred into animals that were subsequently infected with Lm-Ova. Animals were then inoculated with B16F10 murine melanoma cells expressing Ova (B16-Ova) at memory phase (day >30 post-infection). […]

[3] = system: B7-H3-expressing F420 tumor cells; assay: Repeat stimulation assay of B7-H3 CAR-T cells with F420 tumor cells; format: cell-based, murine; conditions: CAR-T:tumor 3:1, counted every 3 days, FIG. 5
Experimental: as §2, with “scFv” for “single-chain variable fragment (scFv)”, “F420” for “GL261”, “*p<0.05;” for “***p<0.001;”
as §3, §1

OT-I CD8^+ T cells = assay: OT-I CD8+ T cells activated with anti-CD3/CD28 in presence of Arid1a inhibitor, CD62L by flow cytometry; format: cell-based, mouse; conditions: inhibitor 1 μM during 48 hours activation, drug removed, additional 2 days culture with IL-2; FIG. 1
Excerpt: Data are compiled from at least two independent experiments. Data are shown as mean±s.e.m. *p<0.05; two-tailed unpaired Student's t-test.
Flow Cytometry. Antibodies from Biolegend included APC/Cy7 anti-human CD8α, BV785 anti-human CD45RA, PE anti-human CD62L, APC anti-human CD27, PE/Cy7 anti-human CCR7, BV421 anti-human CD95, BV785 anti-mouse/human CD44, BV510 anti-mouse KLRG1, KIRAVIA Blue 520 anti-mouse CD62L, BV605 anti-mouse CD127, BV650 anti-mouse CX3CR1, APC anti-mouse CD8α, ALEXA FLUOR® 700 fluorescent dye anti-mouse CD45.2, APC anti-mouse CD98; PE anti-mouse CXCR3 (eBioscience); and BUV395 anti-human CD3, BUV805 anti-human CD45RO; BUV496 anti-mouse CD45.1, BUV805 anti-mouse CD8α were acquired from BD Biosciences. For surface markers, cells were stained for 30 minutes at 4° C. in PBS+2% (w/v) bovine serum albumin (BSA). […] Samples were acquired on CYTEK® Aurora or BD LSRII flow cytometer and analyzed with FlowJo software.
Effective adoptive T cell therapy for cancer is critically dependent upon the use of T cells with long-term memory potential (Lugli et al. (2020) Trends Immunol. 41:17-28; Gattinoni et al. (2012) Nat. Rev. Cancer 12:671-684; Klebanoff et al. (2005) Proc. Natl. Acad. Sci. USA 102:9571-9576; Hurton et al. (2016) Proc. Natl. Acad. Sci. USA 113: E7788-E7797). Therefore, it was determined whether manipulation of CBAF can improve anti-tumor therapy. […]

human CD8^+ T cells [4] = assay: Differentiation of activated human naive CD8+ T cells in vitro (TCM, TSCM, TEM markers); format: cell-based; conditions: treatment during the first 48 hours; anti-CD3/CD28, culture in IL-15 or IL-2; FIG. 8
Experimental: Naïve human CD8^+ T cells were activated with anti-CD3/CD28 and cultured with IL-15; Arid1a inhibitor was added at the indicated time point (n=6 per group). Data are compiled from at least two independent experiments. Data are representative of two independent experiments. Data shown are as mean±s.e.m. *p<0.05, **p<0.01, ***p<0.001; one-way ANOVA.
Human Naïve CD8^+ T Cell Isolation and Stimulation. Human naive CD8^+ T cells were isolated from apheresis ring obtained from the St. Jude blood donor center. Peripheral blood mononuclear cells (PBMC) were isolated using a density gradient medium sold under the tradename LYMPHOPREP® (StemCell Inc.) following the manufacturer's protocol. Briefly, blood from apheresis ring was mixed with phosphate-buffered saline (PBS) containing 2% fetal bovine serum in 1:1 ratio. The mixture was then layered carefully on a density gradient medium sold under the tradename LYMPHOPREP®. Samples were centrifuged at 4000 rpm for 30 minutes at room temperature without braking. The PBMC layer was aspirated, washed twice with 2% fetal calf serum/PBS before isolation of naïve CD8^+ T cell using the MojoSort Human CD8^+ Naïve T Cell Isolation Kit (Biolegend). Naïve CD8^+ T cells were then stimulated with human T cell activation and expansion reagent sold under the tradename IMMUNOCULT® Human CD3/CD28 T Cell Activator (StemCell Inc.) plus 50 U/ml rhIL-2 or 10 ng/ml rhIL-15 for 2 days and expanded with 50 U/ml rhIL-2 or 10 ng/ml rhIL-15. BRD-K98645985 (1 μM; AOBIOUS or MedChemExpress) was added at the indicated time points. All human studies were in compliance with the Declaration of Helsinki. Blood donors were recruited by the Blood Donor Center at St. Jude Children's Research Hospital. Blood donors provided written consent for research use of their blood products not used in transfusions, which has been reviewed and approved by the Institutional Review Board at St. Jude Children's Research Hospital.
The effect of the Arid1a inhibitor on the differentiation of activated, human CD8^+ T cells was also analyzed. […] After 30 days, T cells were recovered and analyzed.

MC38-Ova tumors = assay: MC38-Ova tumor growth after adoptive transfer of inhibitor-pretreated OT-I cells; format: in vivo; conditions: OT-I cells transiently treated with inhibitor during activation, transferred into tumor-bearing mice; FIG. 3
Experimental: Naïve OT-I CD8^+ T cells were activated with anti-CD3/CD28 in the presence or absence of Arid1a inhibitor for 48 hours followed by expansion for another 4 days. Data are representative of two independent experiments. Data are shown as mean±s.e.m. **p<0.01; two-way ANOVA.
as §4
as §5, with “post-infection). Improved control of tumor growth and enhanced survival by the Smarcd2-ablated CD8^+ T cells were observed.” for “post-infection).”

F420 tumor = assay: F420 tumor-bearing mice treated with B7-H3 CAR-T cells pre-treated with Arid1a inhibitor; format: in vivo
Experimental: Data are representative of two independent experiments. Data are shown as mean±s.e.m. *p<0.05, ***p<0.001; two-way ANOVA.
Data are representative of two independent experiments. Log-rank (Mantel-Cox) test was performed for comparing survival curves.
For CAR-T tumor models, the murine osteosarcoma cell line F420 was derived from singly floxed p53+/F-Col2.3 transgenic mice (Zhao et al. (2015) Oncogene 34:5069-5079); 0.5×10^6 F420 cells were injected subcutaneously into naïve mice. Seven days after tumor transplant, 5×10^6 B7-H3 CAR-T cells were transferred i.v. without lymphodepleting chemotherapy and tumor size was measured every two days.
Currently the most widely used adoptive T cell therapy employs the use of CARs. However, the use of CAR-T cells for the treatment of solid tumors remains challenging (Lim & June whether CAR-T cell (2017) Cell 168:724-740). To examine function is enhanced by acute Arid1a inhibition, a CAR targeting murine B7-H3 (Haydar et al. (2021) Neuro-Oncol. 23:999-1011) was used in two B7-H3-positive cell lines, murine osteosarcoma F420 (Zhao et al. (2015) Oncogene 34:5069-5079; Kenneth et al. (2021) Mol. Ther. 29:326-326) and glioma GL261 (Haydar et al. (2021) Neuro-Oncol. 23:999-1011). Murine T cells were activated for 2 days in the presence or absence of the Arid1a inhibitor, followed by retroviral transduction of the B7-H3 CAR to generate CAR-T cells. […] The ability of B7-H3 CAR-T cells to control the growth of F420 cells was then assessed in vivo.

[5] = day 9 post-transfer, vs vehicle-treated CAR-T cells

## CO[C@H]1CN(C)C(=O)c2cc(NC(=O)NC(C)C)ccc2OC[C@H](C)N(Cc2ccc(-c3ccccn3)cc2)C[C@@H]1C [BRD-K98645985]
Murine B7-H3 CAR-T cells
  CAR expression compared with vehicle-treated controls: no difference in CAR expression
  CD62L expression of CAR-T cells: high CD62L expression
[1]
  expansion of CAR-T cells on repeated stimulation: greater expansion
Human CD8^+ T cells [2]
  persistence of activated human T cells in NSG mice: enhanced persistence
  propensity to express markers of TCM cells in NSG mice: greater propensity to express markers of TCM cells
B16-Ova tumors
  control of B16-Ova tumor growth in vivo by transferred OT-I cells: improved the ability of OT-I cells to control
[3]
  expansion of CAR-T cells on repeated stimulation: greater expansion
OT-I CD8^+ T cells
  generation of cells with the TCM marker CD62L: promoted the generation of cells with the TCM marker CD62L
Human CD8^+ T cells [4]
  generation of cells with markers of T memory stem cells (TSCM, CD45RA^+CCR7^+CD27^+CD95^+): necessary and sufficient to promote the generation
  generation of cells with markers of TCM (CD45RA-CCR7+): necessary and sufficient to promote the generation of cells with markers of TCM
  numbers of cells with markers of effector memory T cells (TEM, CD45RA^+CCR7^−): reduced numbers of cells with markers of effector memory T cells
MC38-Ova tumors
  control of MC38-Ova tumor growth in vivo by transferred OT-I cells: improved the ability of OT-I cells to control
F420 tumor; B7-H3 CAR-T cells from transiently inhibitor-treated T cells vs untreated, FIG. 6
  tumor control (F420 tumor growth): markedly enhanced tumor control
F420 tumor; B7-H3 CAR-T cells from transiently inhibitor-treated T cells vs untreated, FIG. 7
  survival of F420 tumor-bearing mice: markedly enhanced
F420 tumor; [5]
  number of CAR-T cells among tumor infiltrating lymphocytes: higher numbers
  proportion of CD62L^+CD44^+ cells among tumor infiltrating CAR-T cells: higher proportion of CD62L^+CD44^+ cells
